The target of this test is T1, Recombinant (1-346) HPK1 (h) (Homo sapiens, UniProt Q92918).
T1 construct: Recombinant (1-346) HPK1 (h) is incubated with 8 mM MOPS pH 7.0
T1 sequence (Q92918 1-346): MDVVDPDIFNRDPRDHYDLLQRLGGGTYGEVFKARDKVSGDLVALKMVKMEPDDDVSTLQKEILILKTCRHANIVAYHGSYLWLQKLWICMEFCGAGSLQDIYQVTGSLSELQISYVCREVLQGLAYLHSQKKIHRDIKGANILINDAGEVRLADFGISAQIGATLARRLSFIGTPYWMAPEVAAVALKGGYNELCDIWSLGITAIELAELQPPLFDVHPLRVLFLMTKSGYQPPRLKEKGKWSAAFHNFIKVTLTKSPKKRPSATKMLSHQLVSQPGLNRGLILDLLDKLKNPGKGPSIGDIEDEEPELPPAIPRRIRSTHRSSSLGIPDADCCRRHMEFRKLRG
Briefly: HPK1 human STE kinase enzymatic radiometric assay. In kind it is biochemical. The conditions noted are these: read-out: HPK1 IC50 nM Range. How it is done: (a) HPK1 Human STE Kinase Enzymatic Radiometric Assay
A stock solution of 10 mM of test compound is prepared in DMSO. The compound plate was prepared by 3-fold and 9-point serial dilutions. Recombinant (1-346) HPK1 (h) is incubated with 8 mM MOPS pH 7.0, 0.2 mM EDTA, 0.33 mg/mL myelin basic protein, 10 mM MgAcetate and [gamma-33P]-ATP (specific activity and concentration as required). The reaction is initiated by the addition of the Mg/ATP mix. After incubation for 40 minutes at RT, the reaction is stopped by the addition of phosphoric acid to a concentration of 0.5%, 10 μL of the reaction is then spotted onto a P30 filtermat and washed four times for 4 minutes in 0.425% phosphoric acid and once in methanol prior to drying and scintillation counting. For more details of kinase assay protocols, see: Gao, Y. et. al.; Biochem J.451 (2): 313-328, 2013.

What is called IC50 is the concentration at which inhibition is half-maximal. Regarding `CC(C)N1CCN(c2ccc(-c3nc(-c4cc5c(cc4F)C(=O)NCC5)c(N)nc3F)cc2)[C@H](C)C1` [Example I-51, (R)-6-(3-amino-5-fluoro-6-(4-(4-isopropyl-2-methylpiperazin-1-yl)phenyl)pyrazin-2-yl)-7-fluoro-3,4-dihydroisoquinolin-1(2H)-one], the half-inhibitory concentration (IC50) lay in the range of 0.1 to 10 nM.

On to `CN(C)Cc1cc(-c2nc(-c3cc4c(cc3F)C(=O)NCC4)c(N)nc2F)ccc1N1CCOCC1` [Example I-65, 6-(3-amino-6-(3-((dimethylamino)methyl)-4-morpholinophenyl)-5-fluoropyrazin-2-yl)-7-fluoro-3,4-dihydroisoquinolin-1(2H)-one], for which the IC50 lay within 0.1 to 10 nM. Then `Cc1cc2cc(-c3nc(-c4ccc(N5CCN(C(C)C)CC5)cc4)c(F)nc3N)c(F)cc2c(=O)[nH]1` [Example I-182, 6-(3-amino-5-fluoro-6-(4-(4-isopropylpiperazin-1-yl)phenyl)pyrazin-2-yl)-7-fluoro-3-methylisoquinolin-1(2H)-one], with 0.1 to 10 nM.

For the compound `Cc1[nH]c(=O)c2ccc(-c3nc(-c4ccc(N5CCN(CC6CC6)CC5)cc4)c(F)nc3N)cc2c1F` [Example I-106, 6-(3-amino-6-(4-(4-(cyclopropylmethyl)piperazin-1-yl)phenyl)-5-fluoropyrazin-2-yl)-4-fluoro-3-methylisoquinolin-1(2H)-one], the half-maximal inhibitory concentration (IC50) lay in the range of 0.1 to 10 nM. Then `Nc1nc(F)c(-c2ccc(N3CCN(C4COC4)CC3)cc2)nc1-c1ccc2c(c1)CCNC2=O` [Example I-46, 6-(3-amino-5-fluoro-6-(4-(4-(oxetan-3-yl)piperazin-1-yl)phenyl)pyrazin-2-yl)-3,4-dihydroisoquinolin-1(2H)-one], with 0.1 to 10 nM; and `Nc1nc(F)c(-c2ccc(N3CCN(CC4CC4)CC3)cc2)nc1-c1ccc2c(c1)C1(CC1)CNC2=O` [Example I-108, 6′-(3-amino-6-(4-(4-(cyclopropylmethyl)piperazin-1-yl)phenyl)-5-fluoropyrazin-2-yl)-2′,3′-dihydro-1′H-spiro[cyclopropane-1,4′-isoquinolin]-1′-one], with 0.1 to 10 nM; and `CN(C)Cc1cc(-c2nc(-c3cc4c(cc3F)C(=O)NCC4)c(N)nc2F)ccc1N1CCSCC1` [Example I-129, 6-(3-amino-6-(3-((dimethylamino)methyl)-4-thiomorpholinophenyl)-5-fluoropyrazin-2-yl)-7-fluoro-3,4-dihydroisoquinolin-1(2H)-one], with 0.1 to 10 nM. As for `Cc1[nH]c(=O)c2ccc(-c3nc(-c4ccc(N5CCOCC5)c(CN(C)C)c4)c(F)nc3N)cc2c1Cl` [Example I-124, 6-(3-amino-6-(3-((dimethylamino)methyl)-4-morpholinophenyl)-5-fluoropyrazin-2-yl)-4-chloro-3-methylisoquinolin-1(2H)-one], the figure is 0.1 to 10 nM; as for `CN(C)Cc1cc(-c2nc(-c3ccc4c(=O)[nH]cc(F)c4c3)c(N)nc2F)cc2c1OCCO2` [Example I-269, 6-(3-amino-6-(8-((dimethylamino)methyl)-2,3-dihydrobenzo[b][1,4]dioxin-6-yl)-5-fluoropyrazin-2-yl)-4-fluoroisoquinolin-1(2H)-one], 0.1 to 10 nM; as for `Nc1nc(F)c(-c2ccc(N3CCOCC3)c(CN3CCCCC3)c2)nc1-c1cc(F)c2c(c1)CCNC2=O` [Example I-187, 6-(3-amino-5-fluoro-6-(4-morpholino-3-(piperidin-1-ylmethyl)phenyl)pyrazin-2-yl)-8-fluoro-3,4-dihydroisoquinolin-1(2H)-one], 11 to 100 nM. Consider `Nc1nc(F)c(-c2ccc(N3CCOCC3)c(CN3CCC3)c2F)nc1-c1cc2c(cc1F)C(=O)NCC2` [Example I-244, 6-(3-amino-6-(3-(azetidin-1-ylmethyl)-2-fluoro-4-morpholinophenyl)-5-fluoropyrazin-2-yl)-7-fluoro-3,4-dihydroisoquinolin-1(2H)-one], for which the IC50 lay within 11 to 100 nM. Then `Cc1c[nH]c(=O)c2ccc(-c3nc(-c4ccc(C5CCOCC5)c(CN5CCCC5)c4)c(F)nc3N)cc12` [Example I-205, 6-(3-amino-5-fluoro-6-(3-(pyrrolidin-1-ylmethyl)-4-(tetrahydro-2H-pyran-4-yl)phenyl)pyrazin-2-yl)-4-methylisoquinolin-1(2H)-one], with 0.1 to 10 nM. With `C[C@H]1CN(c2ccc(-c3nc(-c4cc5c(cc4F)C(=O)NCC5)c(N)nc3F)cc2CN(C)C)CCO1` [Example I-212, (S)-6-(3-amino-6-(3-((dimethylamino)methyl)-4-(2-methylmorpholino)phenyl)-5-fluoropyrazin-2-yl)-7-fluoro-3,4-dihydroisoquinolin-1(2H)-one], the IC50 was 0.1 to 10 nM. As for `Cc1c[nH]c(=O)c2ccc(-c3nc(-c4cc(CN(C)C)c(N5CCOCC5)c(F)c4F)c(F)nc3N)cc12` [Example I-264, 6-(3-amino-6-(5-((dimethylamino)methyl)-2,3-difluoro-4-morpholinophenyl)-5-fluoropyrazin-2-yl)-4-methylisoquinolin-1(2H)-one], the IC50 was 101 to 1000 nM. For `CN(C)Cc1cccc(-c2nc(-c3ccc4c(=O)[nH]cc(F)c4c3)c(N)nc2F)c1` [Example I-281, 6-(3-amino-6-(3-((dimethylamino)methyl)phenyl)-5-fluoropyrazin-2-yl)-4-fluoroisoquinolin-1(2H)-one], the half-inhibitory concentration (IC50) lay within 11 to 100 nM. As for `Nc1nc(F)c(-c2ccc(N3CCOCC3)c(CN3CCC3)c2)nc1-c1ccc2c(c1)CCNC2=O` [Example I-144, 6-(3-amino-6-(3-(azetidin-1-ylmethyl)-4-morpholinophenyl)-5-fluoropyrazin-2-yl)-3,4-dihydroisoquinolin-1(2H)-one], the IC50 fell in the range of 0.1 to 10 nM. Take `C[C@H]1CN(c2ccc(-c3nc(-c4cc(F)c5c(c4)CCNC5=O)c(N)nc3F)cc2CN(C)C)CCO1` [Example I-213, (S)-6-(3-amino-6-(3-((dimethylamino)methyl)-4-(2-methylmorpholino)phenyl)-5-fluoropyrazin-2-yl)-8-fluoro-3,4-dihydroisoquinolin-1(2H)-one]: the 50% inhibitory concentration (IC50) was in the range of 0.1 to 10 nM. Take `CN(C)Cc1cc(-c2nc(-c3ccc4c(c3)CCNC4=O)c(N)nc2F)ccc1OCC1CCOCC1` [Example I-178, 6-(3-amino-6-(3-((dimethylamino)methyl)-4-((tetrahydro-2H-pyran-4-yl)methoxy)phenyl)-5-fluoropyrazin-2-yl)-3,4-dihydroisoquinolin-1(2H)-one]: the half-maximal inhibitory concentration (IC50) was 0.1 to 10 nM. As for `Nc1nc(F)c(-c2ccc(N3CCOCC3)c(CN3CCCC3)c2)nc1-c1cc(F)c2c(c1)CCNC2=O` [Example I-112, 6-(3-amino-5-fluoro-6-(4-morpholino-3-(pyrrolidin-1-ylmethyl)phenyl)pyrazin-2-yl)-8-fluoro-3,4-dihydroisoquinolin-1(2H)-one], the figure is 0.1 to 10 nM; as for `CN1CC2(CCN(c3ccc(-c4nc(-c5cc6c(cc5F)C(=O)NCC6)c(N)nc4F)cc3)CC2)C1` [Example I-61, 6-(3-amino-5-fluoro-6-(4-(2-methyl-2,7-diazaspiro[3.5]nonan-7-yl)phenyl)pyrazin-2-yl)-7-fluoro-3,4-dihydroisoquinolin-1(2H)-one], 0.1 to 10 nM. Then `Nc1nc(F)c(-c2ccc(N3CCN(CCCC(F)F)CC3)cc2)nc1-c1ccc2c(=O)[nH]ccc2c1` [Example I-70, 6-(3-amino-6-(4-(4-(4,4-difluorobutyl)piperazin-1-yl)phenyl)-5-fluoropyrazin-2-yl)isoquinolin-1(2H)-one], with 0.1 to 10 nM. As for `Cc1cc2cc(-c3nc(-c4ccc(N5CCN(CCCC(F)F)CC5)cc4)c(F)nc3N)cc(F)c2c(=O)[nH]1` [Example I-159, 6-(3-amino-6-(4-(4-(4,4-difluorobutyl)piperazin-1-yl)phenyl)-5-fluoropyrazin-2-yl)-8-fluoro-3-methylisoquinolin-1(2H)-one], the figure is 0.1 to 10 nM; as for `CO[C@@H]1CCN(Cc2cc(-c3nc(-c4cc(F)c5c(c4)CCNC5=O)c(N)nc3F)ccc2N2CCOCC2)C1` [Example I-155, (R)-6-(3-amino-5-fluoro-6-(3-((3-methoxypyrrolidin-1-yl)methyl)-4-morpholinophenyl)pyrazin-2-yl)-8-fluoro-3,4-dihydroisoquinolin-1(2H)-one], 0.1 to 10 nM; as for `Nc1nc(F)c(-c2ccc(N3CCN(CC4CC4)CC3)cc2)nc1-c1cc2c(F)c[nH]c(=O)c2cc1F` [Example I-141, 6-(3-amino-6-(4-(4-(cyclopropylmethyl)piperazin-1-yl)phenyl)-5-fluoropyrazin-2-yl)-4,7-difluoroisoquinolin-1(2H)-one], 0.1 to 10 nM. As to `COCCN(C)Cc1cc(-c2nc(-c3cc4c(cc3F)C(=O)NCC4)c(N)nc2F)ccc1C1CCOCC1` [Example I-175, 6-(3-amino-5-fluoro-6-(3-(((2-methoxyethyl)(methyl)amino)methyl)-4-(tetrahydro-2H-pyran-4-yl)phenyl)pyrazin-2-yl)-7-fluoro-3,4-dihydroisoquinolin-1(2H)-one], the IC50 was 0.1 to 10 nM.

The values above are taken from patent US20240425479A1, “HALO-SUBSTITUTED AMINO AZA-HETEROARYL COMPOUNDS AS INHIBITORS OF THE HAEMATOPOIETIC PROGENITOR KINASE 1 (HPK1)” (priority 2021, published 2024).
